“Also recorded” adds a separate entry of the source.
Assays:
C57BL/6 mice = assay: Bleomycin induced acute lung inflammation; type: in vivo
Excerpt: In order to determine the activity of the exemplary all-D retro-inverso IB(s) peptide XG-102 (SEQ ID NO: 11) in the treatment of Chronic Obstructive Pulmonary Disease (COPD) XG-102 (SEQ ID NO: 11) is used in an animal model of Bleomycin induced acute lung inflammation and fibrosis. The protocol of bleomycin induced inflammation and fibrosis has been described before in the literature. The aim of the Experiment was to investigate the effect of XG-102 (SEQ ID NO: 11) by subcutaneous (s.c.) route on neutrophil recruitment in broncho alveolar lavage (BAL) and lung in bleomycin induced inflammation and fibrosis: • at 1 day after a single bleomycin administration (10 mg/kg) • and at day 10 with the development of fibrosis 1) Method and Experimental Approach • The test compound XG-102 (SEQ ID NO: 11) at two doses and vehicle control were given s.c. with a single intranasal administration of bleomycin and mice were analyzed after 1 and 10 days. The animals used in the model were 10 C57BL/6 mice (8 weeks old) per group. The experimental groups included vehicle, 0.001 mg/kg XG-102 (SEQ ID NO: 11) and 0.1 mg/kg XG-102 (SEQ ID NO: 11), and the treatment consisted of repeated sub-cutaneous administration of XG-102 (SEQ ID NO: 11), prior to bleomycin administration then every 3 days. Acute lung inflammation at 24 h was monitored by BAL lavage, cytology, cell counts, and lung myeloperoxidase activity. The effect of the compound was compared with vehicle controls. Lung fibrosis was assessed histologically using hematoxylin and eosin staining at day 10 after the single dose of bleomycin. 1.1) Bleomycin Administration • Bleomycin sulfate in saline (10 mg/kg body weight) from Belton Laboratories (Montrouge, France) or saline were given through the airways by nasal instillation in a volume of 40 μL under light ketamine-xylasine anesthesia. The groups for Bleomycin administration for both bleomycin induced inflammation and fibrosis included: Vehicle, 0.001 mg/kg XG-102 (SEQ ID NO: 11) and 0.1 mg/kg XG-102 (SEQ ID NO: 11). The route for bleomycin induced inflammation was subcutaneous (s.c.) route, and administration occurred as a single dose. The route for bleomycin induced fibrosis was subcutaneous (s.c.) route, and administration occurred 3 times in 10 days. 1.2) Bronchioalveolar Lavage Fluid (BAL F) • After incision of the trachea, a plastic cannula was inserted and airspaces were washed using 0.3 ml of PBS solution, heated to 37° C. The samples collected were dispatched in 2 fractions: the first one (1 ml corresponding to the 2 first lavages) was used for mediator measurement and the second one for the cell determination (4 ml). The first fraction was centrifuged (600 g for 10 min) and supernatant was fractionated and kept at −80° C. until mediator determination. The cell pellet was then resuspended in 0.4 ml sterile NaCl, 0.9%, and pooled with the second fraction and was used for cell counts. […] 1.4) Cell Count and Determination • Total cell count was determined in BAL fluid using a Malassez hemocytometer. […] 1.5) TNF Measurement • TNF level in BALF was determined using ELISA assay kits (Mouse DuoSet, R&D system, Minneapolis, USA) according to manufacturer's instructions. […] 1.6) MPO-Measurement • MPO-levels were measured upon administration of XG-102. […]

hAPP Tg mice = assay: Plaque load by 6E10 immunohistochemistry and ThioflavinS staining in hAPP Tg mice; type: in vivo
Experimental: iv) Treatment • Forty female hAPP transgenic mice were treated with either 0.1 mg/kg b.w./every two weeks or 10 mg/kg b.w./every three weeks of the test substance XG-102 (SEQ ID NO: 11) in two different dosages (n=12/group) or treated with the vehicle (n=12) s.c. once every three weeks over four months.
viii) Evaluation of Brain Morphology • Brain tissues of all Tg animals investigated were handled in exactly the same way to avoid bias due to variation of this procedure. From brain halves of 24 Tg mice (8 of each group) 20 cryo-sections per layer (altogether 5 layers), each 10 μm thick (Leica CM 3050S) were sagittally cut and 5 (one from each layer) were processed and evaluated for quantification of plaque load. The five sagittal layers corresponded with the FIGS. 104 to 105, 107 to 108, 111 to 112, 115 to 116 and 118 to 119 according to the morphology atlas “The Mouse Brain” from Paxinos and Franklin (2nd edition). The first layer was specified by the requirement to include the whole hippocampus with it's regions CA1, CA2, CA3, GDIb and GDmb. Immunoreactivity was quantitatively evaluated in the hippocampus and in the cortex using the monoclonal human Aβ-specific antibody 6E10 (Signet) as well as ThioflavinS staining. Remaining brain hemispheres or tissue not used were saved and stored at JSW CNS until the end of the project. b) Evaluation
iii) Histology • i1) Measurement of Amyloid Depositions and Plaque Load • For 6E10 immunohistochemistry the following evaluation procedure was used: • aa) Contrasting the image for visualization of slice borders without applying the contrast on the image. • bb) Interactive drawing of the cortical outlines and the following measurement of the cortical area (=region area). • cc) Interactive drawing of the area of interest (AOI), in which stained objects are detected over a certain intensity based threshold level (the same for each image) and above a size of 8 μm^2. • dd) Measurement of the area of each object, the sum of stained area in the AOI as well as the number of objects after a smooth contrasting to enhance signal/noise ratio (the same for each image). • ee) Repetition of aa)-dd) for the hippocampus. • ff) Calculation of the mean plaque size (=“sum area of plaques/number of plaques”), the relative plaque number and area (=“number of plaques/region area” and “sum area of plaques/region area*100”). • gg) Automated data export into an Excel spread sheet, including the parameters “image title, region area, number of plaques, sum of plaque area, relative plaque number, relative plaque area and mean plaque size. A field for remarks was used to record image quality and exclusion criteria, respectively. Exclusion criteria were missing parts of the slice, many wrinkles, dominant flaws or staining inconsistencies (e.g. due to bulges, which can impede the full reaction of the blocking reagent). • hh) Closing the image without saving (to keep raw data raw). c) Results

## CC(C)C[C@@H](NC(=O)[C@@H](Cc1ccccc1)NC(=O)[C@H]1CCCN1C(=O)[C@@H](CCC(N)=O)NC(=O)[C@H](NC(=O)[C@H]1CCCN1C(=O)[C@@H](CCCNC(=N)N)NC(=O)[C@@H](CO)NC(=O)[C@@H](CCC(N)=O)NC(=O)[C@H](N)CC(=O)O)C(C)C)C(=O)N[C@H](CC(N)=O)C(=O)N[C@H](CC(C)C)C(=O)N[C@@H](C(=O)N[C@@H](C(=O)N1CCC[C@@H]1C(=O)N[C@H](CCCNC(=N)N)C(=O)N[C@H](CCCCN)C(=O)N1CCC[C@@H]1C(=O)N[C@H](CCCNC(=N)N)C(=O)N1CCC[C@@H]1C(=O)N1CCC[C@@H]1C(=O)N[C@H](CCCNC(=N)N)C(=O)N[C@H](CCCNC(=N)N)C(=O)N[C@H](CCCNC(=N)N)C(=O)N[C@H](CCC(N)=O)C(=O)N[C@H](CCCNC(=N)N)C(=O)N[C@H](CCCNC(=N)N)C(=O)N[C@H](CCCCN)C(=O)N[C@H](CCCCN)C(=O)N[C@H](CCCNC(=N)N)C(=O)NCC(=O)O)[C@H](C)O)[C@H](C)O [XG-102]
C57BL/6 mice; 0.001 mg/kg s.c., single dose, 1 day
  neutrophil recruitment and other cell types in bronchioalveolar space: has no effect on neutrophil recruitment or other cell types
C57BL/6 mice; 0.1 mg/kg s.c., single dose, 1 day
  neutrophil recruitment and total cells in bronchioalveolar lavage space: reduces significantly the neutrophil recruitment and the number of total cells recruited
C57BL/6 mice; acute inflammation study
  histology, inflammatory cell accumulation: a decrease of the inflammatory cell accumulation in the peribronchial space
C57BL/6 mice; s.c., MPO not significantly induced after bleomycin
  MPO levels in the lung: only little effect on the MPO levels in the lung; also recorded: no effect on the MPO levels in the lung
C57BL/6 mice; s.c., TNF levels very low after BLM
  TNF level in BALF: a trend to reduction of the TNF level in BALF
hAPP Tg mice; 0.1 mg/kg
  mean plaque size (ThioflavinS, hippocampus): reduced mean plaque size, however this effect did not reach significance level
hAPP Tg mice; 10 mg/kg
  cortical 6E10 IR plaque load: increased versus vehicle
hAPP Tg mice; mouse, in vivo
  ThioflavinS plaque area [%] in the hippocampus: significantly reduced the area obtained by plaques in the hippocampus
  cortical plaque load (ThioflavinS): cortical plaque load remained unchanged
hAPP Tg mice; p<0.05 for 10 mg/kg, p<0.01 for 0.1 mg/kg
  number of hippocampal ThioflavinS positive plaques: reduced the number of plaques negatively dose-dependent in the hippocampus; also recorded: a negatively dose dependent reduction of the number of hippocampal ThioflavinS positive plaques

Source: patent US9006185B2, “Use of cell-permeable peptide inhibitors of the JNK signal transduction pathway for the treatment of various diseases” (Xigen Inflammation Ltd., priority 2008, dated 2015)
